Source: PubChem BioAssay (NCI)
Several values for one entry are separate records, joined by “and”; a condition that tells them apart may be missing. Equal values may be shown once.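 Values below derive from 48-hour exposures of cells grown in 96-well plates, with endpoints linearly interpolated between the two concentrations bracketing the appropriate inhibition level. GI50 is the concentration that inhibits growth by half. The concentration for full growth arrest is given as TGI.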

How the values were obtained:
Test in all cases: NCI tumour cell line growth inhibition, 48 h
EKVX NSCLC = test system: EKVX NSCLC
OVCAR-4 ovarian = test system: OVCAR-4 ovarian
COLO 205 colon = test system: COLO 205 colon
K-562 leukemia = test system: K-562 leukemia
NCI-H23 lung = test system: NCI-H23 lung
DMS 273 small cell lung = test system: DMS 273 small cell lung
MALME-3M melanoma = test system: MALME-3M melanoma
MOLT-4 leukemia = test system: MOLT-4 leukemia
SF-295 CNS = test system: SF-295 CNS
HOP-18 NSCLC = test system: HOP-18 NSCLC

Row | SMILES | TGI (EKVX NSCLC) [µM] | TGI (OVCAR-4 ovarian) [µM] | TGI (COLO 205 colon) | TGI (K-562 leukemia) [µM] | TGI (NCI-H23 lung) | TGI (DMS 273 small cell lung) [µM] | TGI (MALME-3M melanoma) | TGI (MOLT-4 leukemia) [µM] | GI50 (EKVX NSCLC) [µM] | GI50 (OVCAR-4 ovarian) [µM] | TGI (SF-295 CNS) [µM] | GI50 (COLO 205 colon) [µM] | GI50 (K-562 leukemia) [µM] | GI50 (NCI-H23 lung) [µM] | GI50 (MALME-3M melanoma) [µM] | TGI (HOP-18 NSCLC) [µM] | GI50 (MOLT-4 leukemia) [µM] | GI50 (SF-295 CNS) [µM] | GI50 (DMS 273 small cell lung) [µM] | GI50 (HOP-18 NSCLC) [µM]
1 | CCc1cc(Cc2ccc(C)c(NC(=O)C(=O)C3C(=O)NC(=O)NC3=O)c2CC)cc(C)c1NC(=O)C(=O)C1C(=O)NC(=O)NC1=O | > 100 | > 100 | > 100 µM | > 100 | > 100 µM | > 100 | > 100 µM | > 100 |  |  |  |  |  |  |  |  |  |  |  | 
2 | CC(/C=N/N=C(N)N)=N\N=C(N)N | 499 | 95.3 | 33.1 µM and 21.5 µM | 785 | > 61.8 µM and 171 µM | 650 | > 76.9 µM and 214 µM | 463 | 61.5 | 13.2 | 856 | 4.26 | 23.1 | 31.1 | > 39.6 | 2060 | 28.2 |  |  | 
3 | O=C1C=Cc2ncccc2C1=O | 47.5 | 17.2 | 32.5 µM | 26.4 | 39.6 µM | 30.9 | > 57.2 µM |  |  |  | 32.2 |  |  |  |  | > 64.7 |  |  |  | 
4 | N#C/C(=C\c1ccc2[nH]ccc2c1)C(=O)c1ccc(O)c(O)c1 | > 100 | > 100 | > 100 µM | > 100 | > 100 µM | > 100 | > 100 µM | > 100 |  |  | > 100 |  |  |  |  | > 100 |  |  |  | 
5 | [CH3][Sn]1([CH3])[O]CC(COc2cc(Cl)c(Cl)cc2Cl)[O]1 (stereo unspecified) | > 100 | > 100 | > 100 µM | > 100 | > 100 µM | > 100 | > 100 µM | > 100 | 55.9 | > 100 | > 100 | > 100 | > 100 | > 100 | > 100 | > 100 | > 100 | 38.8 | > 100 | 75
6 | CC(C)(C)Sc1nnc(SC(C)(C)C)c2c(=O)[nH]nc(SC(C)(C)C)c12 | 24.6 | 10.5 | 25.2 µM | 26.8 | 22.9 µM | 21.3 | 26.2 µM | 15.7 |  |  | 23.8 |  |  |  |  |  |  |  |  | 
7 | Cn1nc(-c2ccccc2)c(C(=O)/C=C/c2ccc(Cl)cc2)c(N2CCCC2)c1=O | 32.4 |  | 4.07 µM | 9.06 | 10.6 µM | 24.2 |  | 6.66 |  |  | 11.6 |  |  |  |  | 19.4 |  |  |  | 
8 | CC1=CC(=O)NP(=O)(C23CC4CC(CC(C4)C2)C3)N1 (stereo unspecified) | > 100 | > 100 | > 100 µM | > 100 | > 100 µM | > 100 | > 100 µM | > 100 |  |  | > 100 |  |  |  |  | > 100 |  |  |  | 
9 | S=c1c2ccccc2c(=S)n2n1CC=CC2 | > 100 | > 100 | > 100 µM | > 100 | > 100 µM | > 100 | > 100 µM | > 100 |  |  | > 100 |  |  |  |  | > 100 |  |  |  | 
10 | c1ccc(-c2nnc3nn4c(-c5ccccc5)cnnc4c3c2-c2ccccc2)cc1 | 70.9 | 42.5 |  | > 100 | > 100 µM | > 100 | > 100 µM | > 100 |  |  | > 100 |  |  |  |  | > 100 |  |  |  | 
11 | CCCCNC1=C(C(=O)OCC)/C(=N/NC(=O)c2ccccc2O)CO1 | > 100 | > 100 | > 100 µM | > 100 | > 100 µM |  | > 100 µM | > 100 |  |  | > 100 |  |  |  |  | > 100 |  |  |  | 
12 | Cc1ccc2nc(NC(=O)C(=O)CC(=O)c3cccc4ccccc34)sc2c1 | > 100 | 32.1 | > 100 µM | > 100 | > 100 µM | > 100 | 70.2 µM | > 100 |  |  | 48.4 |  |  |  |  | > 100 |  |  |  | 
13 | O=C(/C=C/C1C(=O)NC(=O)NC1=O)CC(=O)C(=O)Nc1cc(Cl)c(Cl)cc1Cl | > 100 | > 100 | > 100 µM | > 100 | > 100 µM | > 100 | > 100 µM | > 100 |  |  | > 100 |  |  |  |  | > 100 |  |  |  | 
14 | CCOC(=O)CC(NC(=O)c1ccc(N=NN(C)C)cc1)C(=O)OCC (stereo unspecified) | > 100 | > 100 | > 100 µM | > 100 | > 100 µM | > 100 | > 100 µM | > 100 |  |  | > 100 |  |  |  |  |  |  |  |  | 
15 | CC(C)[Si](OCC1CC(C#N)OC(C)(C)O1)(C(C)C)C(C)C (stereo unspecified) | 66 | > 100 | 31.7 µM | 37.9 | 65.8 µM | 35.8 | 57.6 µM | 41.1 |  |  | 29.3 |  |  |  |  | > 100 |  |  |  | 
16 | CC(C)N1C(C)[C@@H](c2ccccc2)O[P@]1(=O)CC1=CCCCC1 (stereo partly specified) | > 100 |  | > 100 µM | > 100 | > 100 µM |  | > 100 µM | > 100 |  |  | > 100 |  |  |  |  | > 100 |  |  |  | 
17 | O=c1[nH]cc(C(F)(C(F)(F)F)C(F)(F)F)c(=O)[nH]1 | > 100 | > 100 | > 100 µM | > 100 | > 100 µM | > 100 | > 100 µM | > 100 |  |  | > 100 |  |  |  |  | > 100 |  |  |  | 
